± gives the uncertainty stated by the source.
Assay: xn = mol fraction of the nth substance listed

C1CCC2=[NH+]CCCN2CC1.c1nc[n-]n1 + CCO
303.15 K, 100 kPa
Settings	viscosity [mPa·s]
x1 = 0.1001	4.38 ± 0.09
x1 = 0.2	9.22 ± 0.2
x1 = 0.2999	22.01 ± 0.49
x1 = 0.4003	47.32 ± 1.1
x1 = 0.4989	90.79 ± 2.8
x1 = 0.6002	174.5 ± 8.3
x1 = 0.7008	325.1 ± 22
x1 = 0.7993	472.2 ± 39
x1 = 0.9002	830.6 ± 86

CC(C)CO + CCO
101 kPa, x2 = 0.5
Settings	viscosity [mPa·s]
308.15 K	1.598 ± 0.034
313.15 K	1.479 ± 0.032
318.15 K	1.308 ± 0.028

CCCCCC + CCO
298.15 K
Settings	viscosity [mPa·s]
100 kPa, x1 = 0.0432	0.9721 ± 0.012
100 kPa, x1 = 0.1024	0.848 ± 0.011
100 kPa, x1 = 0.1981	0.702 ± 0.0089
100 kPa, x1 = 0.3027	0.5885 ± 0.0074
100 kPa, x1 = 0.4066	0.5026 ± 0.0063
100 kPa, x1 = 0.5031	0.439 ± 0.0055
100 kPa, x1 = 0.5999	0.3881 ± 0.0049
100 kPa, x1 = 0.7007	0.3479 ± 0.0044
100 kPa, x1 = 0.8026	0.3191 ± 0.004
100 kPa, x1 = 0.8955	0.3025 ± 0.0038
100 kPa, x1 = 0.971	0.2965 ± 0.0038
101 kPa, x1 = 0.0149	1.046 ± 0.027
101 kPa, x2 = 0.1035	0.3031 ± 0.008
101 kPa, x2 = 0.1286	0.306 ± 0.008
101 kPa, x2 = 0.2846	0.3322 ± 0.0087
101 kPa, x2 = 0.3428	0.3666 ± 0.0096
101 kPa, x2 = 0.4373	0.4133 ± 0.011
101 kPa, x2 = 0.4727	0.4249 ± 0.011
101 kPa, x2 = 0.533	0.4651 ± 0.012
101 kPa, x2 = 0.5802	0.4994 ± 0.013
101 kPa, x2 = 0.6757	0.5717 ± 0.015
101 kPa, x2 = 0.7394	0.6511 ± 0.017
101 kPa, x2 = 0.8689	0.8184 ± 0.021
101 kPa, x2 = 0.8995	0.8715 ± 0.023
101 kPa, x2 = 0.9793	1.033 ± 0.027
101.33 kPa, x2 = 0.0569	0.315 ± 0.004
101.33 kPa, x2 = 0.1499	0.325 ± 0.004
101.33 kPa, x2 = 0.2731	0.363 ± 0.005
101.33 kPa, x2 = 0.439	0.438 ± 0.006
101.33 kPa, x2 = 0.5984	0.528 ± 0.007
101.33 kPa, x2 = 0.7241	0.632 ± 0.008
101.33 kPa, x2 = 0.8282	0.757 ± 0.01
101.33 kPa, x2 = 0.9076	0.895 ± 0.011
101.33 kPa, x2 = 0.9673	1.022 ± 0.013

COC(N)=O + CCOC(N)=O
101.33 kPa, x2 = 0.5
Settings	viscosity [mPa·s]
298.15 K	7.716 ± 0.055
313.15 K	4.41 ± 0.033

C=CC(=O)OC + CCOCCOCCO
viscosity [mPa·s], 101 kPa
Settings	293.15 K	298.15 K	303.15 K	308.15 K	313.15 K	318.15 K
x2 = 0.0702	0.594 ± 0.07	0.558 ± 0.07	0.5 ± 0.07	0.469 ± 0.07	0.447 ± 0.07	0.428 ± 0.07
x2 = 0.1404	0.695 ± 0.07	0.65 ± 0.07	0.607 ± 0.07	0.572 ± 0.07	0.539 ± 0.07	0.507 ± 0.07
x2 = 0.2131	0.826 ± 0.07	0.767 ± 0.07	0.715 ± 0.07	0.671 ± 0.07	0.624 ± 0.07	0.589 ± 0.07
x2 = 0.2822	0.95 ± 0.071	0.877 ± 0.07	0.813 ± 0.07	0.756 ± 0.07	0.705 ± 0.07	0.659 ± 0.07
x2 = 0.3597	1.133 ± 0.071	1.038 ± 0.071	0.955 ± 0.071	0.884 ± 0.07	0.82 ± 0.07	0.762 ± 0.07
x2 = 0.4297	1.346 ± 0.071	1.226 ± 0.071	1.109 ± 0.071	1.019 ± 0.071	0.941 ± 0.07	0.872 ± 0.07
x2 = 0.5002	1.574 ± 0.071	1.428 ± 0.071	1.288 ± 0.071	1.171 ± 0.071	1.076 ± 0.071	0.992 ± 0.071
x2 = 0.5703	1.835 ± 0.072	1.648 ± 0.072	1.479 ± 0.071	1.355 ± 0.071	1.236 ± 0.071	1.125 ± 0.071
x2 = 0.6412	2.109 ± 0.072	1.904 ± 0.072	1.715 ± 0.072	1.547 ± 0.071	1.405 ± 0.071	1.286 ± 0.071
x2 = 0.7172	2.478 ± 0.073	2.199 ± 0.073	1.976 ± 0.072	1.782 ± 0.072	1.605 ± 0.071	1.457 ± 0.071
x2 = 0.7906	2.868 ± 0.074	2.529 ± 0.073	2.247 ± 0.073	2.017 ± 0.072	1.819 ± 0.072	1.656 ± 0.072
x2 = 0.8598	3.295 ± 0.076	2.893 ± 0.075	2.534 ± 0.073	2.279 ± 0.073	2.031 ± 0.072	1.836 ± 0.072
x2 = 0.9184	3.692 ± 0.077	3.212 ± 0.076	2.788 ± 0.074	2.508 ± 0.073	2.226 ± 0.073	2.016 ± 0.072

C=CC(=O)OCCCC + CCOCCOCCO
viscosity [mPa·s], 101 kPa
Settings	293.15 K	298.15 K	303.15 K	308.15 K	313.15 K	318.15 K
x2 = 0.0702	0.966 ± 0.071	0.899 ± 0.07	0.837 ± 0.07	0.782 ± 0.07	0.733 ± 0.07	0.687 ± 0.07
x2 = 0.1444	1.059 ± 0.071	0.977 ± 0.071	0.904 ± 0.07	0.839 ± 0.07	0.783 ± 0.07	0.733 ± 0.07
x2 = 0.2183	1.167 ± 0.071	1.07 ± 0.071	0.986 ± 0.071	0.913 ± 0.07	0.849 ± 0.07	0.791 ± 0.07
x2 = 0.2855	1.287 ± 0.071	1.175 ± 0.071	1.078 ± 0.071	0.994 ± 0.071	0.92 ± 0.07	0.854 ± 0.07
x2 = 0.3658	1.453 ± 0.071	1.332 ± 0.071	1.207 ± 0.071	1.108 ± 0.071	1.022 ± 0.071	0.947 ± 0.07
x2 = 0.4403	1.637 ± 0.071	1.499 ± 0.071	1.346 ± 0.071	1.233 ± 0.071	1.127 ± 0.071	1.039 ± 0.071
x2 = 0.5027	1.819 ± 0.072	1.649 ± 0.071	1.477 ± 0.071	1.343 ± 0.071	1.227 ± 0.071	1.126 ± 0.071
x2 = 0.569	2.028 ± 0.072	1.817 ± 0.072	1.646 ± 0.071	1.488 ± 0.071	1.351 ± 0.071	1.236 ± 0.071
x2 = 0.6545	2.363 ± 0.073	2.103 ± 0.072	1.884 ± 0.072	1.697 ± 0.072	1.531 ± 0.071	1.393 ± 0.071
x2 = 0.7189	2.654 ± 0.074	2.336 ± 0.073	2.079 ± 0.072	1.871 ± 0.072	1.672 ± 0.072	1.527 ± 0.071
x2 = 0.787	2.982 ± 0.075	2.609 ± 0.074	2.295 ± 0.073	2.069 ± 0.072	1.842 ± 0.072	1.681 ± 0.072
x2 = 0.8385	3.27 ± 0.076	2.85 ± 0.074	2.481 ± 0.073	2.243 ± 0.073	1.992 ± 0.072	1.816 ± 0.072
x2 = 0.9319	3.843 ± 0.078	3.312 ± 0.076	2.873 ± 0.074	2.586 ± 0.074	2.28 ± 0.073	2.07 ± 0.072

Source: the CheMixHub viscosity set
